Measurements from patent publication US10336730B2, “Substituted glycine derived FXIA inhibitors” (BRISTOL-MYERS SQUIBB COMPANY, priority 2015, dated 2019).

Biological target: T1, purified human Factor XIa (Homo sapiens, UniProt P03951)
T1 construct: purchased Haematologic Technologies
Experiment: Factor XIa enzyme inhibition assay (chromogenic substrate S-2366), Ki
Assay type: biochemical
Conditions: substrate S-2366, pH 7.4
Procedure, shortened: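 Purified human Factor XIa ([…] final) with chromogenic substrate S-2366 (0.0002-0.001 M) in 50 mM HEPES pH 7.4, 145 mM NaCl, 5 mM KCl, 0.1% PEG 8000. Velocities measured over 20-180 minutes with and without inhibitor; Ki derived assuming competitive inhibition, e.g. Ki=IC50/(1+S/Km).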

T1 sequence (P03951 388-625 limits assumed): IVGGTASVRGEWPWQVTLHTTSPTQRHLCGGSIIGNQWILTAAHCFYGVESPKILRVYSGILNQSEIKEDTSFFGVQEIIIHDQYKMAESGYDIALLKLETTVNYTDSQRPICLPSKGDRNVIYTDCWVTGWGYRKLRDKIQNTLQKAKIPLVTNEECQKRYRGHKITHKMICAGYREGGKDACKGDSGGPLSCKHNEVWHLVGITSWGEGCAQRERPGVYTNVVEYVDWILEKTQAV
T1 sequence (P03951 19-387 partner limits assumed): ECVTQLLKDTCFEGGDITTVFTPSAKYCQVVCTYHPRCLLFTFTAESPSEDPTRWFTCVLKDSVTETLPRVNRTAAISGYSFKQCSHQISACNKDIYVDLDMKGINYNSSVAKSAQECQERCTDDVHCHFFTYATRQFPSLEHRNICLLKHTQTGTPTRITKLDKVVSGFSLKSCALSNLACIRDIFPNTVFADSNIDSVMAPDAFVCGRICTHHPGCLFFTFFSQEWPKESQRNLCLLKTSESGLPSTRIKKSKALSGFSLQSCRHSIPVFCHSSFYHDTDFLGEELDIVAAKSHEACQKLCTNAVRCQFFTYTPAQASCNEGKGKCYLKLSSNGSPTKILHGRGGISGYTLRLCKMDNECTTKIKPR

| Ki [nM] | Compound |
| --- | --- |
| 1220 | COc1ccc(CNC(=O)[C@H](Cc2ccccc2)n2cnc(-c3cc(Cl)ccc3-n3cc(Cl)nn3)cc2=O)cc1 [Example 75, (S)-2-(4-(5-chloro-2-(4-chloro-1H-1,2,3-triazol-1-yl)phenyl)-6-oxopyrimidin-1(6H)-yl)-N-(4-methoxybenzyl)-3-phenylpropanamide] |
| 1220 | O=C(NCc1ccc(Cl)cc1)[C@H](Cc1ccccc1)n1cnc(-c2cc(Cl)ccc2-n2cc(Cl)nn2)cc1=O [Example 76, (S)-2-(4-(5-chloro-2-(4-chloro-1H-1,2,3-triazol-1-yl)phenyl)-6-oxopyrimidin-1(6H)-yl)-N-(4-chlorobenzyl)-3-phenylpropanamide] |
| 1450 | O=C(NCc1cccnc1)[C@H](Cc1ccccc1)n1cnc(-c2cc(Cl)ccc2-n2cc(Cl)nn2)cc1=O [Example 77, (S)-2-(4-(5-chloro-2-(4-chloro-1H-1,2,3-triazol-1-yl)phenyl)-6-oxopyrimidin-1(6H)-yl)-3-phenyl-N-(pyridin-3-ylmethyl)propanamide] |
| 4450 | O=C([C@H](Cc1ccccc1)n1cnc(-c2cc(Cl)ccc2-n2cc(Cl)nn2)cc1=O)N1CCOCC1 [Example 78, (S)-6-(5-chloro-2-(4-chloro-1H-1,2,3-triazol-1-yl)phenyl)-3-(1-morpholino-1-oxo-3-phenylpropan-2-yl)pyrimidin-4(3H)-one] |
| 630 | Cn1ncc2cc(CNC(=O)[C@H](Cc3ccccc3)n3cnc(-c4cc(Cl)ccc4-n4cc(Cl)nn4)cc3=O)ccc21 [Example 79, (S)-2-(4-(5-chloro-2-(4-chloro-1H-1,2,3-triazol-1-yl)phenyl)-6-oxopyrimidin-1(6H)-yl)-N-((1-methyl-1H-indazol-5-yl)methyl)-3-phenylpropanamide] |
| 3780 | CC(C)c1cc(CNC(=O)[C@H](Cc2ccccc2)n2cnc(-c3cc(Cl)ccc3-n3cc(Cl)nn3)cc2=O)on1 [Example 80, (S)-2-(4-(5-chloro-2-(4-chloro-1H-1,2,3-triazol-1-yl)phenyl)-6-oxopyrimidin-1(6H)-yl)-N-((3-isopropylisoxazol-5-yl)methyl)-3-phenylpropanamide] |
| 4410 | O=C([C@H](Cc1ccccc1)n1cnc(-c2cc(Cl)ccc2-n2cc(Cl)nn2)cc1=O)N1CCC(O)CC1 [Example 81, (S)-6-(5-chloro-2-(4-chloro-1H-1,2,3-triazol-1-yl)phenyl)-3-(1-(4-hydroxypiperidin-1-yl)-1-oxo-3-phenylpropan-2-yl)pyrimidin-4(3H)-one] |
| 7370 | O=C(NCCc1ncn[nH]1)[C@H](Cc1ccccc1)n1cnc(-c2cc(Cl)ccc2-n2cc(Cl)nn2)cc1=O [Example 82, (S)-N-(2-(1H-1,2,4-triazol-5-yl)ethyl)-2-(4-(5-chloro-2-(4-chloro-1H-1,2,3-triazol-1-yl)phenyl)-6-oxopyrimidin-1(6H)-yl)-3-phenylpropanamide] |
| 3110 | Cn1ccnc1N1CCN(C(=O)[C@H](Cc2ccccc2)n2cnc(-c3cc(Cl)ccc3-n3cc(Cl)nn3)cc2=O)CC1 [Example 83, (S)-6-(5-chloro-2-(4-chloro-1H-1,2,3-triazol-1-yl)phenyl)-3-(1-(4-(1-methyl-1H-imidazol-2-yl)piperazin-1-yl)-1-oxo-3-phenylpropan-2-yl)pyrimidin-4(3H)-one] |
| 2520 | NS(=O)(=O)C1CCN(C(=O)[C@H](Cc2ccccc2)n2cnc(-c3cc(Cl)ccc3-n3cc(Cl)nn3)cc2=O)CC1 [Example 84, (S)-1-(2-(4-(5-chloro-2-(4-chloro-1H-1,2,3-triazol-1-yl)phenyl)-6-oxopyrimidin-1(6H)-yl)-3-phenylpropanoyl)piperidine-4-sulfonamide] |
| 1730 | COCCNC(=O)[C@H](Cc1ccccc1)n1cnc(-c2cc(Cl)ccc2-n2cc(Cl)nn2)cc1=O [Example 85, (S)-2-(4-(5-chloro-2-(4-chloro-1H-1,2,3-triazol-1-yl)phenyl)-6-oxopyrimidin-1(6H)-yl)-N-(2-methoxyethyl)-3-phenylpropanamide] |
| 5500 | O=C(NCCO)[C@H](Cc1ccccc1)n1cnc(-c2cc(Cl)ccc2-n2cc(Cl)nn2)cc1=O [Example 86, (S)-2-(4-(5-chloro-2-(4-chloro-1H-1,2,3-triazol-1-yl)phenyl)-6-oxopyrimidin-1(6H)-yl)-N-(2-hydroxyethyl)-3-phenylpropanamide] |
| 210 | CC(C)CCNC(=O)[C@H](Cc1ccccc1)n1cnc(-c2cc(Cl)ccc2-n2cc(Cl)nn2)cc1=O [Example 87, (S)-2-(4-(5-chloro-2-(4-chloro-1H-1,2,3-triazol-1-yl)phenyl)-6-oxopyrimidin-1(6H)-yl)-N-isopentyl-3-phenylpropanamide] |
| 5610 | O=C([C@H](Cc1ccccc1)n1cnc(-c2cc(Cl)ccc2-n2cc(Cl)nn2)cc1=O)N1CCC1 [Example 88, (S)-3-(1-(azetidin-1-yl)-1-oxo-3-phenylpropan-2-yl)-6-(5-chloro-2-(4-chloro-1H-1,2,3-triazol-1-yl)phenyl)pyrimidin-4(3H)-one] |
| 1940 | CCCNC(=O)[C@H](Cc1ccccc1)n1cnc(-c2cc(Cl)ccc2-n2cc(Cl)nn2)cc1=O [Example 89, (S)-2-(4-(5-chloro-2-(4-chloro-1H-1,2,3-triazol-1-yl)phenyl)-6-oxopyrimidin-1(6H)-yl)-3-phenyl-N-propylpropanamide] |
| 5920 | CN(C)CCCNC(=O)[C@H](Cc1ccccc1)n1cnc(-c2cc(Cl)ccc2-n2cc(Cl)nn2)cc1=O [Example 90, (S)-2-(4-(5-chloro-2-(4-chloro-1H-1,2,3-triazol-1-yl)phenyl)-6-oxopyrimidin-1(6H)-yl)-N-(3-(dimethylamino)propyl)-3-phenylpropanamide] |
| 2850 | O=C(NCc1n[nH]c2c1CCCC2)[C@H](Cc1ccccc1)n1cnc(-c2cc(Cl)ccc2-n2cc(Cl)nn2)cc1=O [Example 91, (S)-2-(4-(5-chloro-2-(4-chloro-1H-1,2,3-triazol-1-yl)phenyl)-6-oxopyrimidin-1(6H)-yl)-3-phenyl-N-((4,5,6,7-tetrahydro-1H-indazol-3-yl)methyl)propanamide] |
| 126 | N#Cc1ccc(NC(=O)[C@H](Cc2ccccc2)n2cnc(-c3cc(Cl)ccc3-n3cc(Cl)nn3)cc2=O)cc1F [Example 92, (S)-2-(4-(5-chloro-2-(4-chloro-1H-1,2,3-triazol-1-yl)phenyl)-6-oxopyrimidin-1(6H)-yl)-N-(4-cyano-3-fluorophenyl)-3-phenylpropanamide] |
| 111 | Cc1nccn1-c1ccc(NC(=O)[C@H](Cc2ccccc2)n2cnc(-c3cc(Cl)ccc3-n3cc(Cl)nn3)cc2=O)cc1 [Example 93, (S)-2-(4-(5-chloro-2-(4-chloro-1H-1,2,3-triazol-1-yl)phenyl)-6-oxopyrimidin-1(6H)-yl)-N-(4-(2-methyl-1H-imidazol-1-yl)phenyl)-3-phenylpropanamide] |
| 25.7 | O=C(Nc1ccc(-n2ccnc2)cc1)[C@H](Cc1ccccc1)n1cnc(-c2cc(Cl)ccc2-n2cc(Cl)nn2)cc1=O [Example 94, (S)-N-(4-(1H-imidazol-1-yl)phenyl)-2-(4-(5-chloro-2-(4-chloro-1H-1,2,3-triazol-1-yl)phenyl)-6-oxopyrimidin-1(6H)-yl)-3-phenylpropanamide] |
| 783 | CN(C)Cc1nccn1-c1ccc(NC(=O)[C@H](Cc2ccccc2)n2cnc(-c3cc(Cl)ccc3-n3cc(Cl)nn3)cc2=O)c(F)c1 [Example 95, (S)-2-(4-(5-chloro-2-(4-chloro-1H-1,2,3-triazol-1-yl)phenyl)-6-oxopyrimidin-1(6H)-yl)-N-(4-(2-((dimethylamino)methyl)-1H-imidazol-1-yl)-2-fluorophenyl)-3-phenylpropanamide] |
| 27.8 | O=C1NCCc2cc(NC(=O)[C@H](Cc3ccccc3)n3cnc(-c4cc(Cl)ccc4-n4cc(Cl)nn4)cc3=O)ccc21 [Example 97, (S)-2-(4-(5-chloro-2-(4-chloro-1H-1,2,3-triazol-1-yl)phenyl)-6-oxopyrimidin-1(6H)-yl)-N-(1-oxo-1,2,3,4-tetrahydroisoquinolin-6-yl)-3-phenylpropanamide] |
| 554 | Nc1n[nH]c2ccc(NC(=O)[C@H](Cc3ccccc3)n3cnc(-c4cc(Cl)ccc4-n4cc(Cl)nn4)cc3=O)cc12 [Example 98, (S)-N-(3-amino-1H-indazol-5-yl)-2-(4-(5-chloro-2-(4-chloro-1H-1,2,3-triazol-1-yl)phenyl)-6-oxopyrimidin-1(6H)-yl)-3-phenylpropanamide] |
| 7370 | O=C([C@H](Cc1ccccc1)n1cnc(-c2cc(Cl)ccc2-n2cc(Cl)nn2)cc1=O)N1CCn2ncnc2C1 [Example 99, (S)-6-(5-chloro-2-(4-chloro-1H-1,2,3-triazol-1-yl)phenyl)-3-(1-(5,6-dihydro-[1,2,4]triazolo[1,5-a]pyrazin-7(8H)-yl)-1-oxo-3-phenylpropan-2-yl)pyrimidin-4(3H)-one] |
| 7050 | O=C(NCCc1cnccn1)[C@H](Cc1ccccc1)n1cnc(-c2cc(Cl)ccc2-n2cc(Cl)nn2)cc1=O [Example 100, (S)-2-(4-(5-chloro-2-(4-chloro-1H-1,2,3-triazol-1-yl)phenyl)-6-oxopyrimidin-1(6H)-yl)-3-phenyl-N-(2-(pyrazin-2-yl)ethyl)propanamide] |
| 7810 | O=C1OCC[C@@H]1NC(=O)[C@H](Cc1ccccc1)n1cnc(-c2cc(Cl)ccc2-n2cc(Cl)nn2)cc1=O [Example 101, (S)-2-(4-(5-chloro-2-(4-chloro-1H-1,2,3-triazol-1-yl)phenyl)-6-oxopyrimidin-1(6H)-yl)-N-((S)-2-oxotetrahydrofuran-3-yl)-3-phenylpropanamide] |
| 3050 | CC(=O)NC1CCN(C(=O)[C@H](Cc2ccccc2)n2cnc(-c3cc(Cl)ccc3-n3cc(Cl)nn3)cc2=O)CC1 [Example 102, (S)-N-(1-(2-(4-(5-chloro-2-(4-chloro-1H-1,2,3-triazol-1-yl)phenyl)-6-oxopyrimidin-1(6H)-yl)-3-phenylpropanoyl)piperidin-4-yl)acetamide] |
